Source: patent US20210290513A1, “COMPOSITION COMPRISING KAKKALIDE” (LG HOUSEHOLD & HEALTH CARE LTD., priority 2020, published 2021)

Tests used:
Type in all cases: cell-based
[1] = system: type I collagen synthesis in human-derived fibroblasts; assay: Type I collagen synthesis in human-derived fibroblasts (PICP EIA kit); conditions: for Increase rate (%) of collagen synthesis: relative to negative control; for Amount of type I collagen production: negative control 151.4
Method: A sample was added to a human-derived fibroblast culture medium to evaluate the effect of promoting type I collagen synthesis at the cellular level. The synthesized collagen was quantified using a Procollagen Type I C-Peptide Enzyme Immunoassay kit (PICP EIA kit). In order to measure the amount of collagen synthesis, a compound of Formula 1 was added to the fibroblast culture medium (Dulbecco's Modified Eagle Medium (DMEM)) so that the final concentration of compound of Formula 1 was 0.1 ppm, 1 ppm, or 10 ppm in each medium, and Genistein was also added to the fibroblast culture medium (Dulbecco's Modified Eagle Medium (DMEM)) so that final concentration of Genistein was 0.1 ppm, 1 ppm, or 10 ppm. After culturing for 48 hours, and then the culture medium was taken, and, by using the PICP EIA kit, the degree of type I collagen synthesis at each concentration was measured at 450 nm using a spectrophotometer. In order to compare the effect, the culture medium of fibroblasts without sample treatment was used as a negative control, and 10 ng/ml TGF-β was used as a positive control, and the degrees of collagen synthesis therein were measured in the same manner as for testing an added sample. A rate of increase in collagen synthesis was calculated as a ratio of the amount of collagen production relative to that of the negative control, and the results are shown in Table 2. The experiment was performed three times for each sample, and averages of measurements were obtained.

[2] = system: Wnt/β-catenin signaling pathway; assay: Wnt/β-catenin signaling pathway activation, TOPflash luciferase reporter in human dermal papilla cells; conditions: untreated control = 100
Method: The effect of the compound of Chemical Formula 1 on the activation of the Wnt/β-catenin signaling pathway was investigated using TOPflash (T-cell factor reporter plasmid) Kit (Millipore, USA). Human dermal papilla cells were inoculated into a 24-well plate at 2×10^5/well, cultured for 24 hours, treated with the compound of Chemical Formula 1 so that the concentration was 10 μg/ml, and then additionally cultured for 15 hours, and firefly luciferase activity was subsequently measured using a dual luciferase assay kit (Promega, USA).
In order to accurately measure the luciferase activity, the experiment was performed three times for each sample, an increase rate (%) was calculated as a ratio of activity relative to that of a control was calculated, and the results are shown in Table 5. The negative control was an untreated group. As a positive control, 6-bromoindirubin-3′-oxime (BIO) was used, and BIO is a material known to inhibit GSK-3 in the Wnt signaling system.

[3] = system: B-16 mouse melanoma cell; assay: Total melanin amount in mouse melanoma cell culture (brightening effect); conditions: B16, 72 h, B-16 melanoma cells cultured three days, vs negative control (DMSO), read-out: Inhibition rate (%) of melanin production
Method: In order to evaluate a brightening effect according to inhibition of melanogenesis, an extract was added to a mouse melanoma cell (B-16 mouse melanoma cell) culture, and the total amount of melanin was measured according to a method described in Lotan R. et al. (Cancer Res. 40:3345-3350, 1980). For this experiment, toxicity with respect to the mouse melanoma cells was first evaluated, and the brightening effect was evaluated at a concentration not inducing toxicity. Dimethyl sulfoxide (DMSO) was used as a negative control, and arbutin was used as a positive control.
Specifically, A compound of Formula 1 was added to a medium of each sample so that the final concentration of the compound of Formula 1 is 1 ppm, 10 ppm, 100 ppm, or 500 ppm, and Daidzein was also added to the medium so that the final concentration of Daidzein is 1 ppm, 10 ppm, 100 ppm, or 500 ppm. Arbutin was added to the medium so that the final concentration was 100 ppm. In each of the mediums, melanoma cells were cultured for three days. Subsequently, the cells were treated with trypsin, detached from the culture plate, and centrifuged, and then melanin was extracted. The detached cells were boiled for 10 minutes by adding 1 ml of a sodium hydroxide solution (1 N concentration) so that melanin was dissolved, and by measuring an absorbance at 400 nm using a spectrophotometer, the amount of melanin production was measured.
The amount of melanin was measured by a method of indicating absorbance per unit cell count (1×10^6 cells), The amount of melanin production in each experimental group with respect to the negative control was calculated as a relative value, and the value obtained by subtracting the amount of melanin production in each experimental group from 100% of the melanin production amount in the negative control group was expressed as the inhibition rate (%). The experiment was performed three times for each sample, and averages of measurements were obtained.

[4] = system: AQP3; assay: AQP3 mRNA expression in human keratinocytes (real-time quantitative PCR); conditions: HaCaT, negative control normalized to 1.0
Method: (§1) Human keratinocytes (HaCaT) were dispensed into a 6-well cell culture plate at 2×10^5 cells/well and cultured for 24 hours in a DMEM medium containing 10% fetal bovine serum (FBS). The medium was replaced with a DMEM medium without 10% FBS and calcium (Ca^2+), and the cultured cells were treated with the compound of Chemical Formula 1, which had been diluted with a medium, for 24 hours. After the 24 hours had passed, the cells were recovered and then washed with a cold phosphate buffer solution (PBS), and total RNA was extracted using an RNeasy mini kit (Qiagen, Germany). A reverse transcription reaction was performed using RNA and a cDNA Synthesis kit (PhileKorea, Korea). The synthesized cDNA was diluted with water after being quantified, and the same amount thereof was used for all reactions. HAS2, HAS3, and AQP3 primers from a TaqMan® Universal Master Mix II and TaqMan® Gene Expression Assays (Thermo Fisher, USA) were used. Real-time quantitative polymerase chain reaction (PCR) was carried out using a StepOnePlus® Real-time PCR System (Applied Biosystems, USA). The experimental results were obtained through calculation performed by a ΔΔCt method based on a housekeeping gene glyceraldehyde-3-phosphate dehydrogenase (GAPDH). The levels of HAS2, HAS3, and AQP3 gene expression in each sample were quantified based on the mRNA expression level (normalized to 1.0) of the negative control to which the sample was not added, and the results are shown in Table 3. As a positive control, 10 ng/ml EGF recombinant human protein (Life Technologies, USA) was used.

[5] = system: HAS3; assay: HAS3 mRNA expression in human keratinocytes (real-time quantitative PCR); conditions: HaCaT, negative control normalized to 1.0
Method: as §1

[6] = system: HAS2; assay: HAS2 mRNA expression in human keratinocytes (real-time quantitative PCR); conditions: HaCaT, negative control normalized to 1.0
Method: as §1

[7] = system: P. aeruginosa; assay: Minimum inhibitory concentration, serial dilution method; conditions: MHB2 medium, about 10^6/well
Method: (§2) This experiment was carried out by a serial dilution method and a method of measuring a minimum inhibitory concentration (MIC), using an MHB2 medium (for bacteria) or a PDB medium (for fungi). The bacteria or fungi were inoculated at about 10^6/well.

[8] = system: S. aureus; assay: as above; conditions: MHB2 medium, about 10^6/well
Method: as §2

[9] = system: E. coli; assay: as above; conditions: MHB2 medium, about 10^6/well
Method: as §2

[10] = system: A. niger; assay: as above; conditions: PDB medium, about 10^6/well
Method: as §2

[11] = system: Pityrosporum ovale; assay: as above; conditions: about 10^6/well
Method: as §2

[12] = system: C. albicans; assay: as above; conditions: PDB medium, about 10^6/well
Method: as §2

[13] = system: dermal papilla cells; assay: Dermal papilla cell proliferation (CCK-8); conditions: 100 ppm, CCK-8 on day 5, Control (DMEM) = 1.00
Method: This experiment was performed using the following media 1) to 3):
1) DMEM (10% FBS, 1% P/S)
2) Depletion medium: 5% charcoal-stripped, FBS-containing, phenol red-free DMEM
3) Serum-free (SF) medium: DMEM (1% P/S).
On days 0 to 5, the following various experiments were performed to confirm a dermal papilla cell proliferation effect.
Day 0: At 10 a.m., cells were seeded (5,000 cells/well)
Day 1: At 10 a.m., after changing the depletion medium, cells were cultured for 24 hours.
Day 2: At 10 a.m., CCK-8 was measured (average initial value: 0.586) before the cells were treated with a sample, and subsequently, cells were treated with a sample.

TGF-β
Increase rate (%) of collagen synthesis ([1]; 10 ng/ml, positive control): 13.84% | Amount of type I collagen production ([1]; 10 ng/ml, positive control): 172.35 ng/mL

O=C1Nc2cc(Br)ccc2/C1=C1/Nc2ccccc2/C1=N\O [BIO, 6-bromoindirubin-3′-oxime]
Increase rate (%) of luciferase activity ([2]; 1 μM, positive control): 153%

O=c1c(-c2ccc(O)cc2)coc2cc(O)ccc12 [Daidzein]
inhibition at 1 ppm [3]: 18.7% | inhibition at 10 ppm [3]: 16.4% | inhibition at 100 ppm [3]: 20.8% | inhibition at 500 ppm [3]: 30.2%

O=c1c(-c2ccc(O)cc2)coc2cc(O)cc(O)c12 [Genistein]
Increase rate (%) of collagen synthesis ([1]; 0.1 ppm, 48 hours): 2.53% | Amount of type I collagen production ([1]; 0.1 ppm, 48 hours): 155.24 ng/mL | Increase rate (%) of collagen synthesis ([1]; 1 ppm, 48 hours): 4.85% | Amount of type I collagen production ([1]; 1 ppm, 48 hours): 158.75 ng/mL | Increase rate (%) of collagen synthesis ([1]; 10 ppm, 48 hours): 8.59% | Amount of type I collagen production ([1]; 10 ppm, 48 hours): 165.93 ng/mL | Increased AQP3 mRNA amount ([4]; 10 ppm, 24 hours): 1.09 | Increased AQP3 mRNA amount ([4]; 100 ppm, 24 hours): 2.47 | Increased HAS3 mRNA amount ([5]; 10 ppm, 24 hours): 2.86 | Increased HAS3 mRNA amount ([5]; 100 ppm, 24 hours): 3.34 | Increased HAS2 mRNA amount ([6]; 10 ppm, 24 hours): 1.06 | Increased HAS2 mRNA amount ([6]; 100 ppm, 24 hours): 2.74 | Minimum inhibitory concentration (%) P. aeruginosa [7]: 0.07% | Minimum inhibitory concentration (%) S. aureus [8]: 0.03% | Minimum inhibitory concentration (%) E. coli [9]: 0.1% | Minimum inhibitory concentration (%) A. niger [10]: 0.2% | Minimum inhibitory concentration (%) Pityrosporum ovale [11]: 0.0005% | Minimum inhibitory concentration (%) C. albicans [12]: 0.08% | Increase rate (%) of luciferase activity ([2]; 10 μg/ml, 15 hours): 140% | Average (ratio) dermal papilla cell proliferation [13]: 1.10

zinc pyrithione
Minimum inhibitory concentration (%) P. aeruginosa [7]: 0.002% | Minimum inhibitory concentration (%) S. aureus [8]: 0.001% | Minimum inhibitory concentration (%) E. coli [9]: 0.002% | Minimum inhibitory concentration (%) A. niger [10]: 0.02% | Minimum inhibitory concentration (%) Pityrosporum ovale [11]: 0.0002% | Minimum inhibitory concentration (%) C. albicans [12]: 0.02%

OC[C@H]1O[C@@H](Oc2ccc(O)cc2)[C@H](O)[C@@H](O)[C@@H]1O [Arbutin, arbutin]
inhibition at 100 ppm [3]: 56%

EGF: EGF recombinant human protein (Life Technologies, USA), positive control
Increased AQP3 mRNA amount ([4]; 10 ng/ml, positive control): 1.09 | Increased HAS3 mRNA amount ([5]; 10 ng/ml, positive control): 5.24 | Increased HAS2 mRNA amount ([6]; 10 ng/ml, positive control): 16.42

COc1ccc(-c2coc3cc(O[C@@H]4O[C@H](CO[C@@H]5OC[C@@H](O)[C@H](O)[C@H]5O)[C@@H](O)[C@H](O)[C@H]4O)c(OC)c(O)c3c2=O)cc1 [Chemical Formula 1, kakkalide]
Increase rate (%) of collagen synthesis ([1]; 0.1 ppm, 48 hours): 4.19% | Amount of type I collagen production ([1]; 0.1 ppm, 48 hours): 157.74 ng/mL | Increase rate (%) of collagen synthesis ([1]; 1 ppm, 48 hours): 12.56% | Amount of type I collagen production ([1]; 1 ppm, 48 hours): 170.41 ng/mL | Increase rate (%) of collagen synthesis ([1]; 10 ppm, 48 hours): 16.07% | Amount of type I collagen production ([1]; 10 ppm, 48 hours): 175.72 ng/mL | Increased AQP3 mRNA amount ([4]; 10 ppm, 24 hours): 1.75 | Increased AQP3 mRNA amount ([4]; 100 ppm, 24 hours): 4.17 | Increased HAS3 mRNA amount ([5]; 10 ppm, 24 hours): 3.97 | Increased HAS3 mRNA amount ([5]; 100 ppm, 24 hours): 5.23 | inhibition at 1 ppm [3]: 35.3% | inhibition at 10 ppm [3]: 48% | inhibition at 100 ppm [3]: 57.6% | inhibition at 500 ppm [3]: 68.4% | Increased HAS2 mRNA amount ([6]; 10 ppm, 24 hours): 2.28 | Increased HAS2 mRNA amount ([6]; 100 ppm, 24 hours): 6.64 | Minimum inhibitory concentration (%) P. aeruginosa [7]: 0.05% | Minimum inhibitory concentration (%) S. aureus [8]: 0.01% | Minimum inhibitory concentration (%) E. coli [9]: 0.05% | Minimum inhibitory concentration (%) A. niger [10]: 0.1% | Minimum inhibitory concentration (%) Pityrosporum ovale [11]: 0.0003% | Minimum inhibitory concentration (%) C. albicans [12]: 0.05% | Increase rate (%) of luciferase activity ([2]; 10 μg/ml, 15 hours): 160% | Average (ratio) dermal papilla cell proliferation [13]: 1.34
